Source: ChEMBL document CHEMBL1697681, “Predicting phospholipidosis using machine learning” (Mol Pharm, 2010)

Tested on: Phospholipidosis
Experiment: Literature-mined public compounds from Lowe et al phospholipidosis modelling dataset

Row | Structure (SMILES) | Phospholipidosis
1 | CN1CCCN(C(c2ccccc2)c2ccc(Cl)cc2)CC1 (stereo not given) [HOMOCHLORCYCLIZINE] | Positive
2 | OC(CN1CCCCC1)c1ccc(C=C2c3ccccc3-c3ccccc32)cc1 (stereo not given) | Positive
3 | N#Cc1ccc(NC(=O)N=C(N)N)cc1Cl [CLOGUANAMIL] | Positive
4 | CC(C)NCC(O)COc1cccc2ccccc12 (stereo not given) [PROPRANOLOL] | Positive
5 | N=C(N)NCCCCCCCCCCNC(=N)N [SYNTHALIN] | Negative
6 | CN(C)CCON=C1c2ccccc2CCc2ccccc21 [NOXIPTILINE] | Positive
7 | CC(C)N(CCC(CCN1CCCCC1)(C(N)=O)c1ccccc1Cl)C(C)C (stereo not given) [DISOBUTAMIDE] | Positive
8 | CN1CCN(C2=Nc3cc(Cl)ccc3N(C)n3cccc32)CC1 | Positive
9 | CC(C)(O/N=C(\C(=O)N[C@@H]1C(=O)N2C(C(=O)[O-])=C(C[n+]3ccccc3)CS[C@H]12)c1csc(N)n1)C(=O)O [CEFTAZIDIME] | Negative
10 | CN(C)CCC=C1c2ccccc2CCc2ccccc21 [AMITRIPTYLINE] | Positive
11 | CN1CCN(Cc2nc3cccc4c3c([n+]2[O-])-c2ccccc2-4)CC1 | Positive
12 | Nc1c2c(nc3ccccc13)CCCC2 [TACRINE] | Negative
13 | CNS(=O)(=O)Cc1ccc2[nH]cc(CCN(C)C)c2c1 | Negative
14 | CNCCC=C1c2ccccc2CCc2ccccc21 [NORTRIPTYLINE] | Positive
15 | CC[C@H]1OC(=O)[C@H](C)[C@@H](O[C@H]2C[C@@](C)(OC)[C@@H](O)[C@H](C)O2)[C@H](C)[C@@H](O[C@@H]2O[C@H](C)C[C@H](N(C)C)[C@H]2O)[C@](C)(OC)C[C@@H](C)C(=O)[C@H](C)[C@@H](O)[C@]1(C)O [CLARITHROMYCIN] | Negative
16 | CCOC(=O)C1N=C(c2ccccc2F)c2cc(Cl)ccc2NC1=O (stereo not given) [ETHYL LOFLAZEPATE] | Positive
17 | CN1CCCCC1CCN1c2ccccc2Sc2ccc([S+](C)[O-])cc21 (stereo not given) [MESORIDAZINE] | Positive
18 | CC[C@H]1OC(=O)[C@H](C)[C@@H](O[C@H]2C[C@@](C)(OC)[C@@H](O)[C@H](C)O2)[C@H](C)[C@@H](O[C@@H]2O[C@H](C)C[C@H](N(C)C)[C@H]2O)[C@](C)(O)C[C@@H](C)CN(C)[C@H](C)[C@@H](O)[C@]1(C)O [AZITHROMYCIN] | Positive
19 | CNCCCN1c2ccccc2CCc2ccccc21 [DESIPRAMINE] | Positive
20 | CCN(CC)CCNC(=O)c1ccc(N)cc1 [PROCAINAMIDE] | Negative
21 | O=C(O)CCCCCCNC1c2ccccc2CCc2ccccc21 [AMINEPTINE] | Negative
22 | CCNC(C)Cc1cccc(C(F)(F)F)c1 (stereo not given) [FENFLURAMINE] | Positive
23 | CC(C)C(=O)Nc1ccc([N+](=O)[O-])c(C(F)(F)F)c1 [FLUTAMIDE] | Negative
24 | Cc1cccc(CN2CCN(C(c3ccccc3)c3ccc(Cl)cc3)CC2)c1 (stereo not given) [MECLIZINE] | Positive
25 | O=C(O)c1cc(-c2ccc(F)cc2F)ccc1O [DIFLUNISAL] | Negative
26 | CCCC[C@@H]1CC(=O)[C@]2(O)O[C@@H]3[C@@H](NC)[C@@H](O)[C@@H](NC)[C@H](O)[C@H]3O[C@@H]2O1.O=S(=O)(O)O | Positive
27 | CCN1CC(CCN2CCOCC2)C(c2ccccc2)(c2ccccc2)C1=O (stereo not given) [DOXAPRAM] | Negative

Row | Structure (SMILES) | Phospholipidosis
28 | Cl.Cl.O=C(CCN1CCN2CCCC2C1)N1c2ccccc2Sc2ccc(Cl)cc21 (stereo not given) [AZACLORZINE HYDROCHLORIDE] | Negative
29 | Oc1ncnc2[nH]ncc12 [ALLOPURINOL] | Positive
30 | CC1COc2c(N3CCN(C)CC3)c(F)cc3c(=O)c(C(=O)O)cn1c23 (stereo not given) [OFLOXACIN] | Negative
31 | CCCC(CCC)C(=O)O [VALPROIC ACID] | Negative
32 | CCN(CC)CCOc1ccc(C(O)(Cc2ccc(Cl)cc2)c2ccc(C)cc2)cc1 (stereo not given) [TRIPARANOL] | Positive
33 | Cn1nnc2c(C(N)=O)ncn2c1=O [TEMOZOLOMIDE] | Negative
34 | CN(C)CCC=C1c2ccccc2C=Cc2c(Cl)cccc21 | Positive
35 | Cc1cn([C@H]2C[C@H](N=[N+]=[N-])[C@@H](CO)O2)c(=O)[nH]c1=O [ZIDOVUDINE] | Negative
36 | Cc1cc(NS(=O)(=O)c2ccc(N)cc2)no1 [SULFAMETHOXAZOLE] | Negative
37 | CN(Cc1cnc2nc(N)nc(N)c2n1)c1ccc(C(=O)N[C@@H](CCC(=O)O)C(=O)O)cc1 [METHOTREXATE] | Negative
38 | CN1CCN(C2=Nc3cc(Cl)ccc3Nc3ccccc32)CC1 [CLOZAPINE] | Positive
39 | CO[C@H]1/C=C/O[C@@]2(C)Oc3c(C)c(O)c4c(O)c(c(/C=N/N5CCN(C)CC5)c(O)c4c3C2=O)NC(=O)/C(C)=C\C=C\[C@H](C)[C@H](O)[C@@H](C)[C@@H](O)[C@@H](C)[C@H](OC(C)=O)[C@@H]1C [RIFAMPIN] | Negative
40 | C1CCC(C(CC2CCCCN2)C2CCCCC2)CC1 (stereo not given) [PERHEXILINE] | Positive
41 | CC1(C)C(=O)NC(=O)N1CC(COc1ccc(-c2ccc(OC(F)(F)F)cc2)cc1)NC=O (stereo not given) | Negative
42 | ClC(Cl)Cl [CHLOROFORM] | Negative
43 | CN1CCN(CCCCN2C(=O)CN(/N=C/c3ccc(-c4ccc(Cl)cc4)o3)C2=O)CC1.Cl.Cl [AZIMILIDE DIHYDROCHLORIDE] | Positive
44 | NC[C@H]1O[C@H](O[C@H]2[C@H](O)[C@@H](O[C@H]3O[C@H](CO)[C@@H](O)[C@H](N)[C@H]3O)[C@H](N)C[C@@H]2N)[C@H](N)C[C@@H]1O [TOBRAMYCIN] | Positive
45 | CN[C@@H]1[C@@H](O)[C@@H](O[C@@H]2[C@@H](O)[C@H](O[C@H]3O[C@H](C(C)N)CC[C@H]3N)[C@@H](N)C[C@H]2N)OC[C@]1(C)O (stereo not given in full) [GENTAMICIN C2] | Positive
46 | CN[C@@H]1[C@@H](O)[C@@H](O[C@@H]2[C@@H](O)[C@H](O[C@H]3O[C@H]([C@@H](C)NC)CC[C@H]3N)[C@@H](N)C[C@H]2N)OC[C@]1(C)O [GENTAMICIN C1] | Positive
47 | CC(Cc1ccccc1)NCCC(c1ccccc1)c1ccccc1 (stereo not given) [PRENYLAMINE] | Positive
48 | CCN(CC)CCOC(=O)c1ccc(N)cc1 [PROCAINE] | Negative
49 | CN1C(C(=O)Nc2ccccn2)=C(O)c2ccccc2S1(=O)=O [PIROXICAM] | Negative
50 | CN[C@@H]1[C@H](O)[C@H](NC)[C@H]2O[C@@]3(O)C(=O)C[C@@H](C)O[C@H]3O[C@@H]2[C@H]1O [SPECTINOMYCIN] | Positive
51 | CC(C)OC(=O)C(C)(C)Oc1ccc(C(=O)c2ccc(Cl)cc2)cc1 [FENOFIBRATE] | Negative
52 | O=C(O)Cc1ccccc1Nc1c(Cl)cccc1Cl [DICLOFENAC] | Negative
53 | O=C(NCC1CCCCN1)c1cc(OCC(F)(F)F)ccc1OCC(F)(F)F (stereo not given) [FLECAINIDE] | Negative
54 | NC12CC3CC(CC(C3)C1)C2 [AMANTADINE] | Positive

Row | Structure (SMILES) | Phospholipidosis
55 | CCC1(c2ccccc2)C(=O)NC(=O)NC1=O [PHENOBARBITAL] | Negative
56 | FC(F)(F)c1ccc(-c2ccc(OCCN3CCCC3)cc2)cc1 [BOXIDINE] | Positive
57 | CCSCC[C@H](N)C(=O)O [ETHIONINE] | Negative
58 | COc1cccc2c1C(=O)c1c(O)c3c(c(O)c1C2=O)C[C@@](O)(C(=O)CO)C[C@@H]3O[C@H]1C[C@H](N)[C@H](O)[C@H](C)O1 [DOXORUBICIN] | Negative
59 | CCOC(=O)N1CCC(=C2c3ccc(Cl)cc3CCc3cccnc32)CC1 [LORATADINE] | Positive
60 | COc1cc2c(c(OC)c1OC)-c1ccc(OC)c(=O)cc1[C@@H](NC(C)=O)CC2 [COLCHICINE] | Negative
61 | CC(NC(C)(C)C)C(=O)c1cccc(Cl)c1 (stereo not given) [BUPROPION] | Negative
62 | CNCCCC12CCC(c3ccccc31)c1ccccc12 [MAPROTILINE] | Positive
63 | CCOC(=O)NC(C)(C)Cc1ccc(Cl)cc1 [CLOFOREX] | Negative
64 | CN(C)CCCN1c2ccccc2Sc2ccc(Cl)cc21 [CHLORPROMAZINE] | Positive
65 | CC1(C)OC[C@H]([C@@H](CS(=O)(=O)c2ccc(Oc3ccc(OC(F)(F)F)cc3)cc2)N(O)C=O)O1 | Negative
66 | CC(=O)Oc1ccccc1C(=O)O [ASPIRIN] | Negative
67 | COc1cc([C@@H]2c3cc4c(cc3[C@@H](O[C@@H]3O[C@@H]5CO[C@@H](C)O[C@H]5[C@H](O)[C@H]3O)[C@H]3COC(=O)[C@H]23)OCO4)cc(OC)c1O [ETOPOSIDE] | Negative
68 | CN(C)[C@@H]1C(O)=C(C(N)=O)C(=O)[C@@]2(O)C(O)=C3C(=O)c4c(O)ccc(Cl)c4[C@@H](O)[C@H]3C[C@@H]12 [DEMECLOCYCLINE] | Negative
69 | CCN(CC)C(=O)[C@@H]1C=C2c3cccc4[nH]cc(c34)C[C@H]2N(C)C1 [LYSERGIDE] | Positive
70 | O=C(CCCN1CCC(O)(c2ccc(Cl)cc2)CC1)c1ccc(F)cc1 [HALOPERIDOL] | Positive
71 | CN(C)C(=N)N=C(N)N [METFORMIN] | Negative
72 | O=C(N[C@H](CO)[C@H](O)c1ccc([N+](=O)[O-])cc1)C(Cl)Cl [CHLORAMPHENICOL] | Positive
73 | CN(C)[C@@H]1C(O)=C(C(N)=O)C(=O)[C@@]2(O)C(O)=C3C(=O)c4c(O)ccc(Cl)c4[C@@](C)(O)[C@H]3C[C@@H]12 [CHLORTETRACYCLINE] | Negative
74 | CC(CCc1ccccc1)NCC(O)c1ccc(O)c(C(N)=O)c1 (stereo not given) [LABETALOL] | Positive
75 | CC(=N)S [THIOACETAMIDE] | Negative
76 | CN(C)CCC=C1c2ccccc2CCc2c(Cl)cccc21 | Positive
77 | CC1(C)N=C(N)N=C(N)N1OCc1ccc(Cl)c(Cl)c1 [CLOCIGUANIL] | Positive
78 | CN(C)CCCN1c2ccccc2CCc2ccc(Cl)cc21 [CLOMIPRAMINE] | Positive
79 | CCN(CC)Cc1cc(Nc2ccnc3cc(Cl)ccc23)ccc1O.Cl | Positive
80 | C#C[C@]1(O)CC[C@H]2[C@@H]3CCc4cc(O)ccc4[C@H]3CC[C@@]21C [ETHINYL ESTRADIOL] | Negative
